# Assays:
# [1] = Body weight of rats treated with EGCG; assay type: in vivo, rat
# Protocol: (§1) Animal. Adult Sprague-Dawley (SD; Harlan) rats (body weight for male: 170-190 g; for female: 125-145 g) and lean and obese Zucker (Charles River Laboratory) rats (body weight for lean male: 240-260 g; for obese male: 420-440 g) were given free access to a standard rat chow diet and water unless indicated. Animal experimental protocols were approved by the University of Chicago institutional animal care and use committee. Rats were maintained at an ambient temperature of 25° C. under a photoperiod of 12-hour light and 12-hour dark.
# (§2) In vivo treatment. EGCG and other catechins (>98% pure) were isolated from green tea (Camellia sinensis) in our laboratory as described in Liao et al., Biochem. Biophys. Res. Commun. 214: 833-838 (1995). Catechins were dissolved in water for oral administration and in sterile phosphate buffered saline for ip injection. Rats in control groups received vehicle only. Testosterone propionate (TP) and 5α-dihydrotestosterone propionate (DHTP) were dissolved in sesame oil and 4 mg in 0.5 ml sesame oil (16 mg/kg body weight) was injected subcutaneously daily, when indicated.
# (§3) Food-restricted, male SD rats were given 12 g rat chow daily, which was about 50% of the amount consumed daily by each control rat. The body weight and the amount of food and water consumed were monitored daily. Food consumption was monitored in rats caged in groups of 3 to 5 animals by weighing food pellets every 24 hr. On the final day, rats were anesthetized with methoxyflurane and blood was collected by heart puncture. Sera were collected after centrifugation (10,000 g for 20 min at 4° C.) for biochemical analysis.
# (§4) Statistical analysis. Data are expressed as the mean±sem. The unpaired Student's t-test was used to examine differences between control and the EGCG-injected groups. Analysis of variance and Student-Newman-Keuls multiple range test were used to examine differences among various groups. A probability level of 0.05 was used to indicate significance.
# Body weight of subjects treated with EGCG. […] In male SD rats, the effect of EGCG on body weight was dose-dependent. […] Male SD rats injected daily ip with 26 and 53 mg EGCG/kg bw gained body weight by 17-24% relative to their initial body weight, but lost 5-9% relative to the control after 7 days of treatment. Whereas, male SD rats daily injected ip with 85 mg EGCG/kg bw lost 15-21% of their body weight relative to their initial weight and 30-41% relative to the control after 7 days of treatment. Control rats continued growth and increased their body weight by 25-34% relative to their initial weight (see Table 1). Female SD rats injected daily ip with 12.5 mg EGCG (about 92 mg/kg bw) lost 10% of their body weight relative to their initial weight and 29% relative to the control after 7 days of treatment. Therefore, a dose of EGCG of 70-92 mg/kg body weight was used in most experiments.
# [2] = assay type: in vivo, rat
# Protocol: as §1, §2, §4
# Weight change in accessory sexual organs and other organs. An effect of EGCG dosage on the weight of accessory sexual organs was also observed. The weight of androgen-sensitive organs, such as ventral and dorsolateral prostates, seminal vesicles, coagulating glands, and preputial glands were reduced by 50-70% after 7 days of treatment with EGCG (about 85 mg/kg bw). Weight changes in these sexual organs were modulated in a catechin-specific manner. Relative to control animals sacrificed at the start of the experiment, these accessory sexual organs (except preputial gland) in male SD rats were reduced by 30-50% in weight after 7 days of EGCG treatment. […]
# [3] = system: sex hormones, leptin, IGF-I, insulin, LH and GH; assay: Change in levels of sex hormones, leptin, IGF-I, insulin, LH and GH (radioimmunoassay of serum); assay type: in vivo, rat
# Protocol: as §1, §2, §3
# (§5) Biochemical analysis. For biochemical analysis, commercially available radioimmunoassay kits for IGF-I and testosterone (Diagnostic Systems Laboratory, Inc), LH and GH (Amersham), leptin and insulin (Linco Research Inc), and corticosterone (ICN) and analytical kits for glycerol and triglyceride (Sigma) and fatty acids (Roche Molecular Biochemicals) were used. Proximate composition analysis of rats was performed by COVANCE Laboratory (Madison, Wis.). Complete blood count and serum chemistry (e.g., cholesterols, glucose, and enzymatic activities) were performed by the Animal Resource Center at the University of Chicago.
# as §4
# Change in levels of sex hormones, leptin, IGF-I, insulin, LH and GH. […] After 7 days of treatment with EGCG (about 85 mg/kg bw), circulating testosterone was reduced by about 70% in male SD rats. Similarly, the circulating level of 17β-estradiol was reduced by 34% in females after 7 days of EGCG treatment. […] However, the pulsatile nature of GH secretion prevented us from making definite conclusions about changes in circulating levels of GH in these rats. The effect of EGCG on sex hormones and various peptide hormones investigated was not mimicked by ECG which has one less hydroxyl group than EGCG.
# [4] = Exogenous androgen (TP or DHTP) co-administered with EGCG; assay type: in vivo, rat
# Protocol: as §2
# Effects of exogenous androgen reverses the effect of EGCG on accessory sexual organs. To determine if the reduction in weight of accessory sexual organs was due to EGCG-induced reduction in androgen levels, we injected male SD rats with androgen and/or EGCG.
# [5] = Change in serum nutrients and proximate body composition; assay type: in vivo, rat
# Protocol: as §1, §2, §3, §5, §4
# Change in serum nutrients and proximate body composition.
# [6] = Effect of EGCG on food intake; assay type: in vivo, rat
# Protocol: as §1
# In vivo treatment. EGCG and other catechins (>98% pure) were isolated from green tea (Camellia sinensis) in our laboratory as described in Liao et al., Biochem. Biophys. Res. Commun. 214: 833-838 (1995). Catechins were dissolved in water for oral administration and in sterile phosphate buffered saline for ip injection. Rats in control groups received vehicle only. […]
# Food-restricted, male SD rats were given 12 g rat chow daily, which was about 50% of the amount consumed daily by each control rat. The body weight and the amount of food and water consumed were monitored daily. Food consumption was monitored in rats caged in groups of 3 to 5 animals by weighing food pellets every 24 hr. […]
# [7] = Change in composition of blood (serum chemistry, complete blood count); conditions: rat, in vivo
# Protocol: as §2, §3
# Biochemical analysis. […]
# Change in composition of blood. Male SD rats were treated with EGCG and ECG for 7 days and then their serum and whole blood was analyzed for various components. […]
# [8] = female SD rats, 12.5 mg EGCG (about 92 mg/kg bw) ip daily, 7 days
# [9] = male SD rats, 85 mg EGCG/kg bw ip daily, 7 days
# [10] = male SD rats, 26 and 53 mg EGCG/kg bw ip daily, 7 days
# [11] = male and female SD rats, 7 days
# [12] = male SD and lean Zucker rats, within 7 to 8 days
molecule,measurement,setting,value
"O=C(OC1Cc2c(O)cc(O)cc2OC1c1cc(O)c(O)c(O)c1)c1cc(O)c(O)c(O)c1 (single isomer, unassigned; (-)) [EGCG, (−)epigallocatechin-3-gallate]",effectiveness in reducing body weight compared with 15 mg (about 85 mg/kg),"[1]; 5 or 10 mg EGCG (26 and 53 mg/kg body weight) injected daily, male SD rats",not effective or less effective
same,body weight loss,"[1]; IP injection, SD male and female rats, within 2 to 7 days of treatment",caused acute body weight loss
same,body weight lost relative to initial weight,[1]; [8],10%
same,body weight lost relative to the control,[1]; [8],29%
same,body weight lost relative to initial weight,[1]; [9],15-21%
same,body weight lost relative to the control,[1]; [9],30-41%
same,body weight gain relative to initial body weight,[1]; [10],17-24%
same,body weight lost relative to the control,[1]; [10],5-9%
same,"effect on body weight, dose dependence","[1]; male SD rats, ip daily",dose-dependent
same,"reduction in weight of androgen-sensitive organs (ventral and dorsolateral prostates, seminal vesicles, coagulating glands, preputial glands)","[2]; about 85 mg/kg bw, 7 days, male rats",50-70%
same,reduction in weight of estrogen-sensitive organs (uterus and ovary),"[2]; female SD rats, 7 days of treatment",about 50%
same,reduction in weight of accessory sexual organs (except preputial gland) relative to control animals sacrificed at the start of the experiment,"[2]; male SD rats, 7 days of treatment",30-50%
same,reduction of circulating level of 17β-estradiol,"[3]; female SD rats, 7 days",34%
same,serum level of GH,"[3]; female SD rats, 7 days",reduced in females
same,"dose dependence of effects on serum testosterone, leptin, IGF-I and insulin",[3]; male SD rats,Dose-dependent effects
same,serum level of GH,"[3]; male SD rats, 7 days",increased in males
same,reduction of circulating testosterone,"[3]; male SD rats, about 85 mg/kg bw, 7 days",about 70%
same,blood level of IGF-I,[3]; [11],significant reduction
same,blood level of insulin,[3]; [11],significant reduction
same,blood level of leptin,[3]; [11],significant reduction
same,reduction of serum level of LH,[3]; [11],40-50%
same,"EGCG-induced body weight loss, food intake restriction, decreases in circulating leptin, IGF-I, insulin and LH, increase in GH under androgen administration","[4]; male SD rats, androgen co-administered",androgen administration was not able to prevent
same,prostate weight loss,[4]; male rats injected daily with TP or DHTP (16 mg/kg sc),did not cause prostate weight loss
same,percent water and protein content (proximate composition),[5]; SD rats treated daily for 7 days,no change
same,carbohydrate content (proximate composition),"[5]; SD rats treated daily for 7 days, 2.5% in control",1.3%
same,fat content (proximate composition),"[5]; SD rats treated daily for 7 days, 4.1% in control",1.4%
same,decrease of abdominal fat,[5]; [12],20-35%
same,decrease of epididymal fat,[5]; [12],not epididymal fat
same,decrease of subcutaneous fat,[5]; [12],40-70%
same,change in serum cholesterol,[5]; male SD rats,−20%
same,change in serum glucose,[5]; male SD rats,−32%
same,change in serum lipids,[5]; male SD rats,−15%
same,change in serum triglycerides,[5]; male SD rats,−46%
same,"serum level of protein, fatty acids and glycerol",[5]; male SD rats,not altered
same,loss of abdominal fat,"[5]; obese male Zucker rats, within 4 days",20%
same,less food consumed than control rats,"[6]; SD male and female rats, ip",50-60%
same,effects of EGCG when administered orally compared with intraperitoneally,[6]; oral administration,diminished or absent
same,"serum total protein, albumin, blood urea nitrogen, creatine, PO4 3−, Na+, K+, Ca2+, Cl−, lactate dehydrogenase, alanine aminotransferase, aspartate aminotransferase, γ-glutamyltranspeptidase",[7],Neither EGCG nor structurally-related ECG caused significant changes
"(−)epicatechin-3-gallate [ECG, reference compound]","effect on sex hormones and various peptide hormones, compared with the effect of EGCG",[3]; rats,not mimicked

# Reference: US6610749B2, “Polyhydroxylated benzene-containing compounds” (ARCH Development Corporation, priority 2000, dated 2003)
